Measurements: patent US10597387B2, “Methods to treat lymphoplasmacytic lymphoma” (Dana-Farber Cancer Institute, Inc., priority 2013, dated 2020)

Columns and labels:
[1] = target: BTK (Homo sapiens (Human), UniProt Q06187); assay: Invitrogen Select Screening kinase assay; type: biochemical; details: in vitro
Description: The in vitro activity of the compounds described herein in inhibiting TAK1, HCK, and other kinases were obtained using an Invitrogen Select Screening assay as known in the art. The IC50 values determined from this assay are shown below.

[2] = tested on: BCWM.1; assay: CellTiter-Glo cell viability assay; type: cell-based
Method: (§1) CellTiter-Glo® Luminescent cell viability assay (Promega) was used to assess cell survival following treatment with the compounds described. Cells were seeded into 384 well plates with the EL406 Combination Washer Dispenser (BioTek Instruments, Inc.), and the compounds were injected into the cells culture media with the JANUS Automated Workstation (PerkinElmer Inc.). Cells were treated with a series diluted inhibitors (20˜0.04 μM) for 72 hours at 37° C. Luminescent measurement is performed using the 2104 Envision® Multilabel Reader (PerkinElmer Inc.).

[3] = tested on: MWCL-1; assay: CellTiter-Glo cell viability assay; type: cell-based
Method: as §1

[4] = tested on: OCI-Ly19; assay: CellTiter-Glo cell viability assay; type: cell-based; details: Homo sapiens, 72 hours
Method: as §1

[5] = tested on: OCI-Ly3; assay: CellTiter-Glo cell viability assay; type: cell-based
Method: as §1

[6] = tested on: Ramos; assay: CellTiter-Glo cell viability assay; type: cell-based; details: 72 hours
Method: as §1

[7] = tested on: RPCIWM-1; assay: CellTiter-Glo cell viability assay; type: cell-based; details: 72 hours
Method: as §1

[8] = target: HCK (Homo sapiens (Human), UniProt P08631); assay: Invitrogen Select Screening kinase assay; type: biochemical; details: in vitro, read-out: HCK IC50 (nM) Inv
Chain of HCK (P08631 whole entry): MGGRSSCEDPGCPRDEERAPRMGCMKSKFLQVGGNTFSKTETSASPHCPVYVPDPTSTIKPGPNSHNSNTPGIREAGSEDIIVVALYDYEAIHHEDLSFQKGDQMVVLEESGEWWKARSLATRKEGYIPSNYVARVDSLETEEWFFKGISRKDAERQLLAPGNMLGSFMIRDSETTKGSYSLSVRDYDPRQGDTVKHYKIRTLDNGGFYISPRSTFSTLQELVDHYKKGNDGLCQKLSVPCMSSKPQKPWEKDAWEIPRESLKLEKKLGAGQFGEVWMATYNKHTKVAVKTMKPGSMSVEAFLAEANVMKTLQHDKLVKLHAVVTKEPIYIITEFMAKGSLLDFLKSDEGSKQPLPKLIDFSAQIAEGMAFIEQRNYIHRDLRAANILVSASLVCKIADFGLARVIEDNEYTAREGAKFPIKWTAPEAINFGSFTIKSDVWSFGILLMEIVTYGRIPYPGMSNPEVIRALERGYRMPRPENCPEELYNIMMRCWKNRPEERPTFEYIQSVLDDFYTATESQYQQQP

Chain of BTK (Q06187 whole entry): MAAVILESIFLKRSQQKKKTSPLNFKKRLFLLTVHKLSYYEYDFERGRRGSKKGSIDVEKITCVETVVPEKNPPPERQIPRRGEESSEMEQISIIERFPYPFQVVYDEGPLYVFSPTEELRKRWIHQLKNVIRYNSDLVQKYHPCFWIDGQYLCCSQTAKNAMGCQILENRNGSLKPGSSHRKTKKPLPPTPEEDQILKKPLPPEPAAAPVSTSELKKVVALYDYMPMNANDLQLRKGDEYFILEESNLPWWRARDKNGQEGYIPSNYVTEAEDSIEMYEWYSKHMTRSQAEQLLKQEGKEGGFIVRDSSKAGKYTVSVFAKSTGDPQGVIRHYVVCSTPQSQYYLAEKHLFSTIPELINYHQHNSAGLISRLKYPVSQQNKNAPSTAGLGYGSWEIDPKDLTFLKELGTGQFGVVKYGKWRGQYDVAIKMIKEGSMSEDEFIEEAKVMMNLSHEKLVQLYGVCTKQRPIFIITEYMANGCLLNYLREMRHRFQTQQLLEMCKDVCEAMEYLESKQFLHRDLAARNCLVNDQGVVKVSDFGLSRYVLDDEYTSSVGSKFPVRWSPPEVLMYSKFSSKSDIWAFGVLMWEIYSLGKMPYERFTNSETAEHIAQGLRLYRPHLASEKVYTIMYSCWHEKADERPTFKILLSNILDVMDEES

Row | Compound | IC50 [1] [nM] | EC50 ([2]; BCWM1, 72 h) [nM] | EC50 ([3]; 72 h) [nM] | EC50 [4] [nM] | EC50 ([5]; Homo sapiens, OCI-Ly3, 72 h) [nM] | EC50 ([6]; Homo sapiens, Ramos) [nM] | EC50 [7] [nM] | IC50 [8] [nM] | EC50 ([2]; 72 hours) [nM] | EC50 ([3]; 72 hours) [nM] | EC50 ([5]; 72 hours) [nM] | EC50 [6] [nM]
1 | CCN1CCN(Cc2ccc(C(=O)Nc3ccc(C)c(NC(=O)c4cncc(-c5cccs5)c4)c3)cc2C(F)(F)F)CC1 [I-1, N-(5-(4-((4-ethylpiperazin-1-yl)methyl)-3-(trifluoromethyl)benzamido)-2-methylphenyl)-5-(thiophen-2-yl)nicotinamide] | 22.9 | 38 | 459 | 552 | 2900 | 4150 |  |  |  |  |  | 
2 | Cc1ccc(C(=O)Nc2cc(N3CCOCC3)cc(N3CCOCC3)c2)cc1NC(=O)c1cncc(-c2cccs2)c1 [I-7, N-(5-((3,5-dimorpholinophenyl)carbamoyl)-2-methylphenyl)-5-(thiophen-2-yl)nicotinamide] | 3420 | 180 | 1760 | 2970 | 3540 | 2380 | 4800 |  |  |  |  | 
3 | Cc1cn(-c2cc(NC(=O)c3ccc(C)c(NC(=O)c4cncc(-c5cccs5)c4)c3)cc(C(F)(F)F)c2)cn1 [I-3, N-(2-methyl-5-((3-(4-methyl-1H-imidazol-1-yl)-5-(trifluoromethyl)phenyl)carbamoyl)phenyl)-5-(thiophen-2-yl)nicotinamide] | 196 | 141 | 355 | 508 | 411 | 555 | 725 |  |  |  |  | 
4 | CCN1CCN(Cc2ccc(NC(=O)c3ccc(C)c(NC(=O)c4cncc(-c5cnoc5)c4)c3)cc2C(F)(F)F)CC1 [I-8] | 69.7 |  |  |  |  |  |  | 5.33 |  |  |  | 
5 | Cc1ccc(C(=O)Nc2cc(N3CCN(C)CC3)cc(C(F)(F)F)c2)cc1NC(=O)c1cncc(-c2cccs2)c1 [I-4, N-(2-methyl-5-((3-(4-methylpiperazin-1-yl)-5-(trifluoromethyl)phenyl)carbamoyl)phenyl)-5-(thiophen-2-yl)nicotinamide] | 459 |  |  |  |  |  |  |  |  |  |  | 
6 | CCN1CCN(Cc2ccc(NC(=O)c3ccc(C)c(NC(=O)c4cncc(-c5cnn(C)c5)c4)c3)cc2C(F)(F)F)CC1 [I-9] | 25.3 |  |  |  |  |  |  | 2.43 |  |  |  | 
7 | N-(2-chloro-5-((4-((4- ethylpiperazin-1-yl)methyl)- 3-(trifluoromethyl)phenyl) carbamoyl)phenyl)-5- (thiophen-2-yl)nicotinamide [I-2] |  |  |  |  |  |  | 110 |  | 12 | 16 | 161 | 60
8 | CCN1CCN(c2ccc(NC(=O)c3ccc(C)c(NC(=O)c4cncc(-c5cccs5)c4)c3)cc2C(F)(F)F)CC1 [I-5, N-(5-((4-(4-ethylpiperazin-1-yl)-3-(trifluoromethyl)phenyl)carbamoyl)-2-methylphenyl)-5-(thiophen-2-yl)nicotinamide] | 3910 | 365 | 1090 | 1560 | 2160 | 989 | 0.02 |  |  |  |  | 
